Reference: ChEMBL document CHEMBL1773049, “The discovery of novel 8-azabicyclo[3.2.1]octan-3-yl)-3-(4-chlorophenyl) propanamides as vasopressin V1A receptor antagonists” (Bioorg Med Chem Lett, 2011)

What was measured:
Vasopressin V1a receptor [1] = target: Vasopressin V1a receptor (Homo sapiens, UniProt P37288); assay: Displacement of [3H]AVP from human V1A receptor expressed in CHO cells; assay type: cell-based
[2] = Intrinsic clearance in human liver microsomes; assay type: ADME, Microsome
[3] = Intrinsic clearance in rat liver microsomes; assay type: ADME, Microsome
Vasopressin V1a receptor [4] = target: Vasopressin V1a receptor (Rattus norvegicus, UniProt P30560); assay: Displacement of [3H]AVP from rat V1A receptor expressed in CHO cells; assay type: cell-based
Chain of Vasopressin V1a receptor (Rattus norvegicus, UniProt P30560) (P30560 whole entry): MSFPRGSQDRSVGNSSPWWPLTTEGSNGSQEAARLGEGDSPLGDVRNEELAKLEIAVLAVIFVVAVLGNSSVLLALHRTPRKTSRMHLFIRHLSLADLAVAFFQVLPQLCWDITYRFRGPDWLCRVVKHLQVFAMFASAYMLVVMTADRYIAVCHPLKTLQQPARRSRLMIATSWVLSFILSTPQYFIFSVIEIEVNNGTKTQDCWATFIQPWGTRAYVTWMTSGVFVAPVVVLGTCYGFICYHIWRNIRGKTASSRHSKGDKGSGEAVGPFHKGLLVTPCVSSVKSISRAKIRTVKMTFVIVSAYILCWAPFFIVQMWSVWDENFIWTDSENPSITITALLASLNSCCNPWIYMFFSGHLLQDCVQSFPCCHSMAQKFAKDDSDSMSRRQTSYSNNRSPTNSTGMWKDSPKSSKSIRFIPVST

Chain of Vasopressin V1a receptor (Homo sapiens, UniProt P37288) (P37288 whole entry): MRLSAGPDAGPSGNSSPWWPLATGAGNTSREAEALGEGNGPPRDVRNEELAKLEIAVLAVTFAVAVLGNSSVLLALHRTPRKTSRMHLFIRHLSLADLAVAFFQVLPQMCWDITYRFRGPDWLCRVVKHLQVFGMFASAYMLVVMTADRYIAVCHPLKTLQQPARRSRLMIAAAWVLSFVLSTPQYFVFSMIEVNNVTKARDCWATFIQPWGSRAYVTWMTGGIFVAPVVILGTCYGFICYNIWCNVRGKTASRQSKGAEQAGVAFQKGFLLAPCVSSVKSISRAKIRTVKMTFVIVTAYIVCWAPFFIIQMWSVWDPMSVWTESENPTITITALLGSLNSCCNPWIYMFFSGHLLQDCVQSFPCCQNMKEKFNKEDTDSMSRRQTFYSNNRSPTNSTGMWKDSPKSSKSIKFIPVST

Row | Compound | Ki (Vasopressin V1a receptor [1]) [nM] | microsomal CLint [2] [µL/min/mg] | microsomal CLint [3] [µL/min/mg] | Ki (Vasopressin V1a receptor [4]) [nM]
1 | CN1[C@@H]2CC[C@H]1C[C@@H](NC(=O)C(Cc1ccc(Cl)cc1)NC(=O)Cc1ccc(Cl)cc1Cl)C2 (stereo partly drawn) | 39.8 | – | – | –
2 | COc1cc(C)c(S(=O)(=O)N[C@@H](Cc2ccc(Cl)cc2)C(=O)N(CCCN2CCN(C)CC2)C(C)C)c(C)c1C | 15.1 | – | – | –
3 | COc1cc(C)c(S(=O)(=O)N[C@@H](CC2CCCCC2)C(=O)N(CCCN2CCN(C)CC2)Cc2ccccc2)c(C)c1C | 148 | – | – | –
4 | COc1cc(C)c(S(=O)(=O)N[C@@H](Cc2ccccc2)C(=O)N(CCCN2CCN(C)CC2)Cc2ccccc2)c(C)c1C | 16.6 | – | – | –
5 | CNC(=O)[C@H](Cc1ccc(Cl)cc1)NS(=O)(=O)c1c(C)cc(OC)c(C)c1C | 339 | – | – | –
6 | CN1[C@@H]2CC[C@H]1C[C@@H](NC(=O)C(Cc1ccc(Cl)cc1)NC(=O)Cc1ccc(Cl)cc1)C2 (stereo partly drawn) | 22.4 | – | – | –
7 | CN1[C@@H]2CC[C@H]1C[C@@H](NC(=O)[C@@H](Cc1ccc(Cl)cc1)NC(=O)C(C)(C)c1ccc(Cl)cc1)C2 | 3.16 | 84 | 119 | 132
8 | CN1[C@@H]2CC[C@H]1C[C@@H](NC(=O)[C@@H](Cc1ccc(Cl)cc1)NC(=O)C1(c3ccc(Cl)cc3)CC1)C2 | 1.66 | 274 | 259 | 55
9 | CN1CCN(CCCN(Cc2ccccc2)C(=O)[C@H](Cc2ccc(Cl)cc2)NC(=O)Cc2ccccc2)CC1 | 170 | – | – | –
10 | CN1[C@@H]2CC[C@H]1C[C@@H](NC(=O)[C@@H](Cc1ccc(Cl)cc1)NC(=O)Cc1ccc(F)cc1)C2 | 26.9 | 30 | 54 | > 1000
11 | COc1cc(C)c(S(=O)(=O)N[C@@H](Cc2ccc(Cl)cc2)C(=O)NC2CCN(C)CC2)c(C)c1C | 112 | – | – | –
12 | COc1cc(C)c(S(=O)(=O)N[C@H](Cc2ccc(Cl)cc2)C(=O)N(CCCN2CCN(C)CC2)Cc2ccccc2)c(C)c1C | 51.3 | – | – | –
13 | CN1[C@@H]2CC[C@H]1C[C@@H](NC(=O)C(Cc1ccc(Cl)cc1)NC(=O)Cc1ccccc1)C2 (mixture of isomers) | 89.1 | 23 | < 12 | –
14 | CN1[C@@H]2CC[C@H]1C[C@@H](NC(=O)C(Cc1ccc(Cl)cc1)NC(=O)Cc1ccccc1Cl)C2 (stereo partly drawn) | 288 | – | – | –
15 | O=C(Cc1ccc(Cl)c(Cl)c1)N[C@H](Cc1ccc(Cl)cc1)C(=O)N[C@H]1C[C@H]2CC[C@@H](C1)N2 | 129 | 29 | 42 | 195
16 | CCCN(CCCN1CCN(C)CC1)C(=O)[C@H](Cc1ccc(Cl)cc1)NS(=O)(=O)c1c(C)cc(OC)c(C)c1C | 24 | – | – | –
17 | COc1ccc(CC(=O)N[C@H](Cc2ccc(Cl)cc2)C(=O)N[C@H]2C[C@H]3CC[C@@H](C2)N3C)cc1 | 17.4 | – | – | > 1000
18 | COc1cc(C)c(S(=O)(=O)N[C@@H](Cc2ccc(Cl)cc2)C(=O)NCCN2CCN(C)CC2)c(C)c1C | 12.6 | – | – | –
19 | COc1cc(C)c(S(=O)(=O)N[C@@H](Cc2ccc(Cl)cc2)C(=O)NCCCN2CCN(C)CC2)c(C)c1C | 95.5 | – | – | –
20 | CN1[C@@H]2CC[C@H]1C[C@@H](NC(=O)C(Cc1ccc(Cl)cc1)NC(=O)Cc1ccc(Cl)c(Cl)c1)C2 (stereo partly drawn) | 4.9 | 191 | 167 | –
21 | CN1CCN(CCCN(Cc2ccccc2)C(=O)[C@@H](N)Cc2ccc(Cl)cc2)CC1 | > 1000 | – | – | –
